For this experiment, the system named is G3-OTAapt1-FAM (F1) (DNA, aptamer) GGGGATCGGGTGTGGGTGGCGTAAAGGGAGCATC
In words: fluorescence quenching (FAM, guanine PIET). The following applies: Na+ 120 mM, Ca2+ 3 mM; 10 mM Tris-HCl pH 8.4, room temperature; 20 nM F1; calibration curve only.

Experimental findings from PMC9138568 (2022) are described below.

For `C[C@@H]1Cc2c(Cl)cc(C(=O)N[C@@H](Cc3ccccc3)C(=O)O)c(O)c2C(=O)O1`, the binding result is “yes”.
